We go through 4 molecules from US20240390376A1, “METHOD FOR PREVENTING ADVERSE PREGNANCY OUTCOMES DUE TO USE OF SELECTIVE SEROTONIN REUPTAKE INHIBITORS (SSRI) DURING GESTATION” (Wisconsin Alumni Research Foundation, priority 2023, published 2024).

The subject of one data set is pregnant C57Bl/6J mice. The note with it: experiment 1; for overall neonatal mortality: control 4.1%. The method, then: (§1) To investigate the role of ketanserin, an exemplary serotonin receptors 2A and 2C antagonist, on preventing SSRI-induced adverse pregnancy and neonatal outcomes, pregnant mice were treated with SSRI, serotonin, and SSRI/serotonin+ketanserin.
Data set [1] concerns pregnant mice. Nature of the data set: Experiment 2: as experiment 1, all mice received ketanserin one hour before treatment. It counts as in vivo. The note with it: for maternal weight gain / neonatal weight on postnatal day 0 / litter size / overall neonatal mortality: experiment 2; for maternal weight gain / neonatal weight on postnatal day 0: ketanserin 1 mg/kg daily one hour before saline or serotonin; for litter size / overall neonatal mortality: ketanserin 1 mg/kg daily one hour before saline, fluoxetine or serotonin. The method, then: as §1

In data set [2] the test system is pregnant mice. Nature of the data set: Number of mouse pups born in control and treatment groups (FIG. 2A). Particulars: serotonin 4 mg/kg, fluoxetine 2 mg/kg, ketanserin 1 mg/kg, vs saline control. The data set is classed as in vivo.
In the next data set the test system is SERT null mice. Nature of the data set: Ketanserin rescue of neonatal mortality in SERT null mice. It counts as in vivo. The note with it: 49.0% without ketanserin. The procedure:
By performing RNA sequencing of placenta from heterozygous Sert+/− mice vs homozygous Sert−/− knockout mice and their respective offspring, it was confirmed that lack of maternal, but not placental or fetal SERT, is associated with placental changes: more than 2,100 genes were differentially expressed in the placenta when the dam was SERT−/−. Importantly, ketanserin also rescued the neonatal mortality in SERT null mice (49.0 vs 23.8% within 24 hours of birth).

For data set [3] the following is noted: cited from earlier work.
For data set [4] the following is noted: in vivo; cited from earlier work.
In data set [5] the test system is pregnant mice. The note with it: fluoxetine 2 mg/kg and 20 mg/kg vs control; dose-dependent; FIG. 1C.
For data set [6], the system named is pregnant sheep. The note with it: in vivo.
Source text: FIG. 1G compares lamb birthweights between a treatment group and control group.
FIG. 1G compares the lamb birthweights between the treatment group and control group.
For data set [7], the system named is pregnant sheep. Particulars: cited from earlier work.
The subject of another data set is placenta of mice. Nature of the data set: Placenta immunostaining (Tunel, caspase 3, Ki67) and placental size, embryonic day 18.5 (FIG. 2B). The note with it: fluoxetine 20 mg/kg.
Setting [8] is: fluoxetine 2 mg/kg or serotonin 5 mg/kg daily.

Where two headings read alike, the source gives them in different places.

As for `NCCc1c[nH]c2ccc(O)cc12` [serotonin, 5-hydroxytryptamine], the “maternal weight gain between DPC10.5 and the day before parturition” value with pregnant C57Bl/6J mice (fluoxetine 2 mg/kg or serotonin 5 mg/kg daily, DPC 10.5 until parturition) is 8.0 ± 0.8 g. Besides, the overall neonatal mortality in the data set with pregnant C57Bl/6J mice (setting [8]) worked out at 32.3%. In the data set on pregnant C57Bl/6J mice (fluoxetine 2 mg/kg or serotonin 5 mg/kg daily, control 8.3), this molecule returned a litter size of 5.2±0.5. Also, in the data set with pregnant C57Bl/6J mice (serotonin 5 mg/kg daily), the “neonatal weight on postnatal day 0” value amounted to 1.138 ± 0.028 g and the “neonatal weight on postnatal day 1” value worked out at 1.223 ± 0.028 g. In the data set with pregnant mice [1], the maternal weight gain was 10.2 ± 0.6 g, the “neonatal weight on postnatal day 0” value was determined as 1.197 ± 0.01 g, the litter size was 7.0±0.5 and the overall neonatal mortality came to 22.8%. Besides, in the data set with pregnant mice [2], the “number of pups born” value is “significantly reduced”.

Turning to `O=C(c1ccc(F)cc1)C1CCN(CCn2c(=O)[nH]c3ccccc3c2=O)CC1` [ketanserin, 3-[2-[4-(4-fluorobenzoyl)piperidin-1-yl]ethyl]-1H-quinazoline-2,4-dione], in the data set on pregnant mice [1], the maternal weight gain came to 11.4 ± 0.5 g, the “neonatal weight on postnatal day 0” value is 1.264 ± 0.01 g, the litter size stood at 7.0±0.3 and the overall neonatal mortality turned out to be 8.5%. In the data set on pregnant mice [1] (summary of the ketanserin studies), the “placental changes and adverse pregnancy and neonatal outcomes caused by SSRI use” value was “prevented most placental changes and adverse pregnancy and neonatal outcomes”. For the same molecule, in the data set with SERT null mice, the “neonatal mortality within 24 hours of birth” value was 23.8%.

In the case of `CN[C@H]1CC[C@@H](c2ccc(Cl)c(Cl)c2)c2ccccc21` [sertraline], the placental transfer result in [3] (low concentrations in the fetal circulation) is recorded as “limited placental transfer”. Further, in data set [4], the “number of pups born” value is recorded as “decrease” and the pup mortality entry is “increase”.

Regarding `CNCCC(Oc1ccc(C(F)(F)F)cc1)c1ccccc1` (centres unmarked) [fluoxetine], the overall neonatal mortality with pregnant C57Bl/6J mice (setting [8]) is reported as 11.6%. In the data set with pregnant mice [1], this molecule gave a litter size of 7.4±0.6 and an overall neonatal mortality of 24.3%. Besides, in the data set on pregnant mice [2], the “number of pups born” value is “significantly reduced”. For the same molecule, the mouse pup mortality entry with pregnant mice [5] is on record as “decidedly negative effect”. The molecule also registered an average gestational length in the data set on pregnant sheep [6] (female, sheep) of 147.7 days. In the data set with pregnant sheep [6], the lamb birthweights entry is given as “weighed significantly less” and the placentome diameter entry is given as “significantly smaller”. Moreover, the placental transfer result in data set [3] (in vivo) was “about 70%”. In addition, the “blood perfusion to the uterus” value with pregnant sheep [7] (third trimester pregnant sheep) is given as “rapidly decreased”. Moreover, the placentome growth entry with pregnant sheep [7] (treated during the last month of gestation) is “decreased placentome growth”. In addition, in data set [4], the “number of pups born” value is recorded as “decrease”, the pregnancy rates result is “decreases” and the pup mortality result is recorded as “increase”. Further, in the data set with placenta of mice, the “Tunel-positive apoptotic cells in the placenta” value is on record as “visualized”. Further, in the data set on placenta of mice (ketanserin 1 mg/kg), the placental size entry is listed as “much reduced”.
